Experimental data published in patent US20150210977A1, “BACTERIUM WITH INCREASED TOLERANCE TO BUTYRIC ACIDS” (LanzaTech New Zealand Limited, priority 2014, published 2015).
Converted amounts (≈) assume the structure as drawn.

How the values were obtained:
Assay type in all cases: cell-based, Clostridium autoethanogenum
[1] = test system: C. autoethanogenum; experiment: Toxicity of 2-HIBA under continuous fermentation (CSTR), gas uptake and metabolite monitoring; conditions: early effect on gas uptake and metabolite production
Excerpt: CSTRs were inoculated with C. autoethanogenum and brought to a stable optical density (OD600 nm) and dilution rate (D˜1.5). For all fermentations in CSTRs, chemically defined media was used containing no yeast extract. Parameters were monitored on an hourly basis, including metabolites (measured by HPLC) and gas composition in/out (measured by GC). Early effects of 2-HIBA on culture metabolism included a measurable reduction in CO and/or H2 utilization rates, followed by a decline in metabolite production rate. Two CSTRs were run in parallel and received the same inoculum and media in flow rate and composition. The reactors were turned continuous at day 0.9 with media containing 1.5 g/L 2-HIBA at a dilution rate of 1.5. […] The process was then repeated on the same culture in one reactor while the other served as a control. Following introduction of 2-HIBA, the metabolic profile of C. autoethanogenum shifted to favor 2,3-butanediol production, capping ethanol production. Biomass production was reduced under increasing inflow from 2-HIBA and overall metabolic levels drop caused by reduced CO and H2 uptake. By removing 2-HIBA from the inflow media, gas uptake and metabolic production is stabilized. This indicates a reversible reaction to 2-HIBA. The average effect level of 2-HIBA in a continuous CSTR system was calculated as 1.15 g/L.

[2] = test system: C. autoethanogenum LZ1561; experiment: Selection of a 2-HIBA tolerant strain in continuous fermentation
Procedure: Microorganisms unable to cope with the increasing 2-HIBA concentration were diluted out from the fermentation system, while microorganisms with improved tolerance were retained. Glycerol stocks were collected as the culture resistance improved. CSTRs were inoculated with C. autoethanogenum LZ1561. The reactors were started in batch mode and turned to continuous mode at a dilution rate of 1.5 after approximately 40 hours. Once operationally stable, 2-HIBA (1.1 g/L) was added to the feeding media which was run into the reactor at a dilution rate of 1.5. […] During selection in continuous fermentation, the 2-HIBA concentration tolerated by the C. autoethanogenum LZ1561 culture was reproducibly raised from 1.1 g/L to 6.7 g/L ([…]) by slowly increasing the 2-HIBA concentration over a period of 85 days.

[3] = test system: C. autoethanogenum LZ1561; experiment: Growth of C. autoethanogenum LZ1561 challenged with 2-HIBA in serum bottles; design: growth rate μ, Set 1 / growth rate μ, Set 2: unit not given here
Procedure: Clostridium strains were grown at 37° C. in PETC media at pH 5.6 using standard anaerobic techniques (Hungate, Meth Microbiol, 3B: 117-132, 1969; Wolfe, Adv Microb Physiol, 6: 107-146, 1971). Fructose (heterotrophic growth) or 30 psi CO-containing steel mill gas (collected from New Zealand Steel site in Glenbrook, NZ; composition: 44% CO, 32% N2, 22% CO2, 2% H2) in the headspace (autotrophic growth) was used as substrate. For solid media, 1.2% bacto agar (BD, Frankton Lakes, N.J. 07417, USA) was added.
Two sets of serum bottle experiments were performed with media containing 0, 0.5, 1, 1.5, 2, 3, or 4 g/L of 2-HIBA. An average of optical density (OD) data from both sets of growth experiments was plotted. Data points outside the visually observed exponential growth phase were removed and the growth rate (g) for each concentration of 2-HIBA was calculated by fitting an exponential trend line (FIG. 1).
FIGS. 1A-1D show the growth rates of C. autoethanogenum challenged with different concentrations of 2-HIBA. FIG. 1A and FIG. 1B show the respective difference in growth curves for the two sets of growth experiments (n=3). FIG. 1C and FIG. 1D show exponentially fitted lines corresponding to FIG. 1A and FIG. 1B, respectively. […] To extract the growth rate from the trend line equations, the following equation was used OD=OD0Xe^μt, where OD=y, t=x in the trend line equations, providing the calculated growth rates listed below.
The growth rates (μ) were plotted in Prism6 (GraphPad, USA) as μ vs log10 [2-HIBA] to determine the concentration of 2-HIBA at which the growth rate of C. autoethanogenum is 50% (FIG. 2).

CC(C)(O)C(=O)O [2-HIBA, 2-hydroxyisobutyric acid]
average effect level of 2-HIBA in a continuous CSTR system [1]: 1.15 g/L
increase in tolerance ([2]; 1.1 g/L to 6.7 g/L during selection in continuous fermentation): 600%
2-HIBA concentration tolerated by the culture ([2]; C. autoethanogenum LZ1561 culture at start of selection): 1.1 g/L
2-HIBA concentration tolerated by the culture ([2]; after slowly increasing the 2-HIBA concentration over a period of 85 days): 6.7 g/L
IC50 ([3]; Clostridium autoethanogenum, LZ1561, μ vs log10 [2-HIBA], read-out: IC50 (concentration of 2-HIBA at which the growth rate is 50%)): 2200 µg/mL (≈ 21.1 mM)
growth rate μ, Set 1 ([3]; [2-HIBA] 0.5 g/L): 0.096
growth rate μ, Set 2 ([3]; [2-HIBA] 0.5 g/L): 0.104
growth rate μ, Set 1 ([3]; [2-HIBA] 1 g/L): 0.092
growth rate μ, Set 2 ([3]; [2-HIBA] 1 g/L): 0.105
growth rate μ, Set 1 ([3]; [2-HIBA] 1.5 g/L): 0.078
growth rate μ, Set 2 ([3]; [2-HIBA] 1.5 g/L): 0.089
growth rate μ, Set 1 ([3]; [2-HIBA] 2 g/L): 0.082
growth rate μ, Set 2 ([3]; [2-HIBA] 2 g/L): 0.090
growth rate μ, Set 1 ([3]; [2-HIBA] 3 g/L): 0.001
growth rate μ, Set 2 ([3]; [2-HIBA] 3 g/L): 0.004
growth rate μ, Set 1 ([3]; [2-HIBA] 4 g/L): 0.004
growth rate μ, Set 2 ([3]; [2-HIBA] 4 g/L): −0.005
effect on growth ([3]; concentration up to 1 g/L of 2-HIBA): little or no effect
effect on growth ([3]; over 2 g/L of 2-HIBA): acute
effect on growth ([3]; up to a concentration of 2 g/L of 2-HIBA): relatively small effect
